Data reported in ChEMBL document CHEMBL5257123, “Synthesis of 6-alkoxy and 6-hydroxy-alkyl amine derivatives of braylin as vasorelaxing agents” (Bioorg Med Chem Lett, 2023).
Activity calls are given as the source filed them. The rule behind the calls is not given here.

Columns and labels:
[1] = Cytotoxicity against VSMC (unknown origin) cells assessed as cell survival at 10 uM measured after 12 hrs by MTT assay; assay type: toxicity, cell-based; conditions: read-out: Activity
[2] = Cytotoxicity against VSMC (unknown origin) cells assessed as cell survival at 1 uM measured after 12 hrs by MTT assay; assay type: toxicity, cell-based; conditions: read-out: Activity
BV-2 [3] = test: Anti-neuroinflammatory activity in mouse BV2 cells assessed as reduction in LPS-induced TNFalpha production at 10 uM preincubated for 30 mins followed by LPS stimulation measured after 24 hrs by ELISA; assay type: functional, cell-based; conditions: time 24.5 hrs
Rattus norvegicus [4] = species on record: Rattus norvegicus; test: Vasorelaxant activity in U46619-induced preconstricted rat endothelium-intact main mesenteric artery assessed as relaxation response; assay type: functional
BV-2 [5] = test: Anti-neuroinflammatory activity in mouse BV2 cells assessed as reduction in LPS-induced IL-6 production at 10 uM preincubated for 30 mins followed by LPS stimulation measured after 24 hrs by ELISA; assay type: functional, cell-based; conditions: time 24.5 hrs
Rattus norvegicus [6] = species on record: Rattus norvegicus; test: Vasorelaxant activity in U46619-induced preconstricted rat endothelium-intact main mesenteric artery assessed as relaxation response at 30 uM relative to control; assay type: functional
Rattus norvegicus [7] = species on record: Rattus norvegicus; test: Vasorelaxant activity in U46619-induced contraction in rat endothelium-denuded main mesenteric arterial ring assessed as relaxation response; assay type: functional; conditions: Mesenteric artery
Rattus norvegicus [8] = species on record: Rattus norvegicus; test: Vasorelaxant activity in U46619-induced contraction in rat endothelium-denuded main mesenteric arterial ring assessed as relaxation response relative to control; assay type: functional; conditions: Mesenteric artery
Rattus norvegicus [9] = species on record: Rattus norvegicus; test: Vasorelaxant activity in MKHS-induced preconstricted rat main mesenteric arterial rings assessed as relaxation response; assay type: functional; conditions: Mesenteric artery
Rattus norvegicus [10] = species on record: Rattus norvegicus; test: Vasorelaxant activity in U46619 induced preconstricted rat endothelium-intact thoracic aortic rings assessed as vasorelaxation response; assay type: functional; conditions: Thoracic aorta
Rattus norvegicus [11] = species on record: Rattus norvegicus; test: Vasorelaxant activity in U46619-induced contraction rat endothelium-intact main mesenteric arterial rings assessed as relaxation response relative to control; assay type: functional; conditions: Mesenteric artery
Rattus norvegicus [12] = species on record: Rattus norvegicus; test: Vasorelaxant activity in U46619-induced contraction rat endothelium-intact main mesenteric arterial rings assessed as relaxation response; assay type: functional; conditions: Mesenteric artery
Rattus norvegicus [13] = species on record: Rattus norvegicus; test: Vasorelaxant activity in U46619-induced preconstricted rat endothelium-intact main mesenteric artery assessed as relaxation response at 10 uM (reference value: 9.08 +/- 1.25 mN); assay type: functional; parameters: scale not given: the % may be the effect or the level left
Rattus norvegicus [14] = species on record: Rattus norvegicus; test: Vasorelaxant activity in rat endothelium-intact main mesenteric artery assessed as relaxation response at 10 uM; assay type: functional
Rattus norvegicus [15] = species on record: Rattus norvegicus; test: Vasorelaxant activity in rat endothelium-denuded main mesenteric artery assessed as relaxation response at 10 uM; assay type: functional

## COc1cc2ccc(=O)oc2c2c1OC(C)(C)C=C2
[1]
  viability at 12 h, 10 µM: 95.2%
[2]
  viability at 12 h, 1 µM: 101%
BV-2 [3]
  Activity: Active
Rattus norvegicus [4]; read-out: EC50
  EC50: 1580 nM
Rattus norvegicus [4]; read-out: pEC50 (converted)
  EC50: 1580 nM
BV-2 [5]
  Activity: Active

## CC1(C)C=Cc2c(c(OCC(O)CNCc3ccccn3)cc3ccc(=O)oc23)O1 (stereo not given)
Rattus norvegicus [6]
  Emax at 30 µM: < 50%

## CC1(C)C=Cc2c(c(OCC(O)CN3CCCC3)cc3ccc(=O)oc23)O1 (stereo not given)
Rattus norvegicus [6]
  Emax at 30 µM: < 50%

## CC(C)Oc1cc2ccc(=O)oc2c2c1OC(C)(C)C=C2
Rattus norvegicus [6]
  Emax at 30 µM: < 50%

## CN(C)CC(O)COc1cc2ccc(=O)oc2c2c1OC(C)(C)C=C2 (stereo not given)
Rattus norvegicus [6]
  Emax at 30 µM: < 50%

## COc1cc2ccc(=O)oc2cc1O [SCOPOLETIN]
[1]
  viability at 12 h, 10 µM: 102%
[2]
  viability at 12 h, 1 µM: 91.2%
BV-2 [3]
  Activity: Active
BV-2 [5]
  Activity: Active

## CCN(CC)CC(O)COc1cc2ccc(=O)oc2c2c1OC(C)(C)C=C2 (stereo not given)
Rattus norvegicus [6]
  Emax at 30 µM: < 50%

## CCCOc1cc2ccc(=O)oc2c2c1OC(C)(C)C=C2
[1]
  viability at 12 h, 10 µM: 105%
[2]
  viability at 12 h, 1 µM: 107%
Rattus norvegicus [7]
  EC50: 339 nM
BV-2 [3]
  Activity: Active
Rattus norvegicus [8]
  Emax: 85%
Rattus norvegicus [6]
  Emax at 30 µM: 80.6%
Rattus norvegicus [9]
  Activity: Active
Rattus norvegicus [10]
  Activity: Dose-Dependent Effect
Rattus norvegicus [11]
  Emax: 80.6%
Rattus norvegicus [12]
  EC50: 2040 nM
Rattus norvegicus [4]; read-out: EC50
  EC50: 1900 nM
Rattus norvegicus [4]; read-out: pEC50 (converted)
  EC50: 2040 nM
BV-2 [5]
  Activity: Active

## CC1(C)C=Cc2c(ccc3ccc(=O)oc23)O1 [SESALIN]
BV-2 [3]
  Activity: Active
Rattus norvegicus [6]
  Emax at 30 µM: 60.8%
Rattus norvegicus [4]; read-out: EC50
  EC50: 2120 nM
Rattus norvegicus [4]; read-out: pEC50 (converted)
  EC50: 2140 nM
BV-2 [5]
  Activity: Active

## CC1(C)C=Cc2c(c(OCC3CO3)cc3ccc(=O)oc23)O1 (stereo not given)
Rattus norvegicus [6]
  Emax at 30 µM: < 50%

## CCN1CCN(CC(O)COc2cc3ccc(=O)oc3c3c2OC(C)(C)C=C3)CC1 (stereo not given)
Rattus norvegicus [6]
  Emax at 30 µM: < 50%

## CC(C)N(CC(O)COc1cc2ccc(=O)oc2c2c1OC(C)(C)C=C2)C(C)C (stereo not given)
Rattus norvegicus [6]
  Emax at 30 µM: < 50%

## CC(=O)OCC[N+](C)(C)C [ACETYLCHOLINE]
Rattus norvegicus [13]
  Activity: 88.4%
Rattus norvegicus [14]
  Activity: Active
Rattus norvegicus [15]
  Activity: inactive

## CC1(C)C=Cc2c(c(OCC(O)CN3CCNCC3)cc3ccc(=O)oc23)O1 (stereo not given)
Rattus norvegicus [6]
  Emax at 30 µM: < 50%

## CC1(C)C=Cc2c(c(OCC(O)CN3CCCCC3)cc3ccc(=O)oc23)O1 (stereo not given)
Rattus norvegicus [6]
  Emax at 30 µM: < 50%

## CCCCOc1cc2ccc(=O)oc2c2c1OC(C)(C)C=C2
Rattus norvegicus [6]
  Emax at 30 µM: < 50%

## CCCCCN(C)CC(O)COc1cc2ccc(=O)oc2c2c1OC(C)(C)C=C2 (stereo not given)
Rattus norvegicus [6]
  Emax at 30 µM: < 50%

## CC1(C)C=Cc2c(c(OCC(O)CN3CCOCC3)cc3ccc(=O)oc23)O1 (stereo not given)
Rattus norvegicus [6]
  Emax at 30 µM: < 50%

## CC1(C)C=Cc2c(c(O)cc3ccc(=O)oc23)O1
BV-2 [3]
  Activity: Active
BV-2 [5]
  Activity: Active

## CCCCN(C)CC(O)COc1cc2ccc(=O)oc2c2c1OC(C)(C)C=C2 (stereo not given)
Rattus norvegicus [6]
  Emax at 30 µM: < 50%

## CN1CCN(CC(O)COc2cc3ccc(=O)oc3c3c2OC(C)(C)C=C3)CC1 (stereo not given)
Rattus norvegicus [6]
  Emax at 30 µM: < 50%

## CCOc1cc2ccc(=O)oc2c2c1OC(C)(C)C=C2
[1]
  viability at 12 h, 10 µM: 105%
[2]
  viability at 12 h, 1 µM: 114%
Rattus norvegicus [7]
  EC50: 195 nM
BV-2 [3]
  Activity: Active
Rattus norvegicus [8]
  Emax: 91.4%
Rattus norvegicus [6]
  Emax at 30 µM: 96.6%
Rattus norvegicus [9]
  Activity: Active
Rattus norvegicus [10]
  Activity: Dose-Dependent Effect
Rattus norvegicus [11]
  Emax: 96.6%
Rattus norvegicus [12]
  EC50: 200 nM
Rattus norvegicus [4]; read-out: pEC50 (converted)
  EC50: 200 nM
BV-2 [5]
  Activity: Active
